Laboratory results: publication PMC7370100, “In Vitro Assessment of the Genotoxic Hazard of Novel Hydroxamic Acid- and Benzamide-Type Histone Deacetylase Inhibitors (HDACi)” (International Journal of Molecular Sciences, 2020)

How the values were obtained:
V79 cells [1] = assay: Nuclear 53BP1 foci formation; format: cell-based, hamster; conditions: 6 to 24 h, V79, in words
Description: The frequency of nuclear foci formed by S139 phosphorylated H2AX (γH2AX foci), which is a surrogate marker of DNA damage, especially DNA double-strand breaks (DSBs), was assayed by immunocytochemistry-based analysis. […] The appearance of nuclear 53BP1 foci, which is another marker of DSBs, was also determined by immunocytochemistry. Cells were fixed with 4% formaldehyde in phosphate-buffered saline (PBS) (MERCK, Darmstadt, Germany) (15 min, RT) followed by incubation with ice-cold methanol (≥20 min, −20 °C). After blocking (1 h, RT, blocking solution: 5% BSA (MERCK, Darmstadt, Germany) in PBS/0.3% Triton X-100 (Sigma, Steinheim, Germany)), incubation with γH2AX antibody and 53BP1 antibody was performed (1:500, overnight, 4 °C). After incubation with the secondary fluorescence-labeled antibody (1:500, 1 h, RT, in the dark), cells were mounted in Vectashield (Vector Laboratories (Burlingame, CA, USA)) containing DAPI. The number of nuclear γH2AX and 53BP1 foci was scored (Olympus BX43 fluorescence microscope). Only nuclei with distinct foci were evaluated and γH2AX pan-stained nuclei were excluded from the foci analyses. Data are shown as the mean ± SEM of three independent experiments with ≥50 nuclei analyzed per experimental condition.

V79 cells [2] = assay: Phospho-ATM (pATM) foci formation; format: cell-based, hamster; conditions: 6 to 24 h, V79, in words
From the text: Figure 4 Cell cycle-related formation of DNA damage by hydroxamic acid- and benzamide-type HDACi. […] (B) For positive control, ionizing radiation (IR) was used. Shown are representative pictures of γH2AX, 53BP1, and pATM stained cells. […] Data shown are the mean ± SD from three independent experiments (n = 3); *, p ≤ 0.05; **, p ≤ 0.01 as compared to the untreated control, which was set to 1.0 (Student´s t-test).

[3] = set-up: method as in PMID 15897550; conditions: humans; read-out: maximal blood serum concentration (Cmax); cited from earlier work

O=C(CCCCCCC(=O)Nc1ccccc1)NO [Vorinostat, vorinostat, reference compound]
formation of nuclear 53BP1 foci (V79 cells [1]): failed to cause the formation of nuclear 53BP1 foci
formation of phospho-ATM (pATM) foci (V79 cells [2]): did not cause the formation of phospho-ATM (pATM) foci
Cmax [3]: ~1000 nM
